Laboratory results as given in patent US20250059205A1, “Heterocyclic Compounds and Methods of Use” (AMGEN INC., priority 2021, published 2025).

Tests used:
[1] = biological target: His-tagged KRAS G12D protein (Homo sapiens, UniProt P01116, G12D); experiment: KRAS G12D TR-FRET Assay; type: binding
[2] = biological target: GDP-bound KRAS protein (aa 1-169), containing both G12D and C118A amino acid substitutions (Homo sapiens, UniProt P01116, C118A/G12D); experiment: KRAS G12D Coupled Nucleotide Exchange Assay; type: biochemical; details: 2 h compound pre-incubation
GDP-bound KRAS protein (aa 1-169), containing both G12D and C118A amino acid substitutions, sequence (P01116 1-169 isoform P01116-2 G12D/C118A): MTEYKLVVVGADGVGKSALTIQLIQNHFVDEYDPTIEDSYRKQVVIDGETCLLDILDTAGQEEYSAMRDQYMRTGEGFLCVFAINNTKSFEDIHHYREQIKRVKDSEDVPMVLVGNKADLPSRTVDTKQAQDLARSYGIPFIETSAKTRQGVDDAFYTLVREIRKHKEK
Experimental: Following compound pre-incubation, purified SOS protein (aa 564-1049) and GTP (Roche 10106399001) were added to the assay wells and incubated for an additional 30 min. […] The assay plates were then read on a PerkinElmer EnVision Multilabel Reader, using AlphaScreen® technology, and data were analyzed using a 4-parameter logistic model to calculate IC50 values.

[3] = test system: Phosphorylation of ERK1/2 in A-427 cells; experiment: Phospho-ERK1/2 MSD Assay (A-427 cells); type: cell-based; details: Homo sapiens, A-427, 2 h, 2 h treatment, read-out: p-ERK (A427 cells) IC50
In short: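 ERK1/2 phosphorylation measured by Meso Scale whole-cell lysate assay after A-427 cells were exposed to a titration of compound for 2 h at 37 °C.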

[4] = test system: Phosphorylation of ERK1/2 in AsPC-1 cells; experiment: Phospho-ERK1/2 MSD Assay (AsPC-1 cells); type: cell-based; details: Homo sapiens, ASPC1, 2 h, 2 hours treatment, read-out: p-ERK (AsPC-1 cells) IC50
In short: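 Read-out: MSD electrochemiluminescent detection of phosphorylated ERK1/2 in whole-cell lysates, fitted to a 4-parameter logistic curve for IC50. Prior to lysis, AsPC-1 cells (25,000 per well) received a 2 h compound dose-response at 37 °C.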

His-tagged KRAS G12D protein, sequence (P01116 1-188 isoform P01116-2 G12D): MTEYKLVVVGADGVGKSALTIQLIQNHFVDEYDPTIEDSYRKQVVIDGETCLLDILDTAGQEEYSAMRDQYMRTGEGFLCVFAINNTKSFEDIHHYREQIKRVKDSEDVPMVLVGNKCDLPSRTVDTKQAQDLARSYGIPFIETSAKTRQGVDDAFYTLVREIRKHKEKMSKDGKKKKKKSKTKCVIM

SMILES | IC50 [1] [nM] | Avg 2 h Coupled Exchange IC50 [2] [nM] | IC50 [3] [nM] | IC50 [4] [nM]
Oc1cc(-c2cc3nc(OC[C@@]45CCCN4C[C@H](F)C5)nc(N4[C@@H]5CC[C@H]4CNC5)c3cc2F)c2ccccc2c1 [Example 53, 4-(4-((1R,5S)-3,8-diazabicyclo[3.2. 1]octan-8-yl)-6-fluoro-2-(((2R,7aS)-2-fluorotetrahydro-1H-pyrrolizin-7a(5H)-yl)methoxy)quinazolin-7-yl)naphthalen-2-ol] | 16 | 3 | 608 | 919
CCc1cccc2cccc(-c3ccc4c(N5C[C@H]6CC[C@@H](C5)N6)nc(OC[C@@]56CCCN5C[C@H](F)C6)nc4c3F)c12 [Example 54, 4-((1R,5S)-3,8-diazabicyclo[3.2. 1]octan-3-yl)-7-(8-ethylnaphthalen-1-yl)-8-fluoro-2-(((2R,7aS)-2-fluorotetrahydro-1H-pyrrolizin-7a(5H)-yl)methoxy) quinazoline] | 4 | 3 | 795 | 1220
Fc1c(-c2cccc3cccc(Cl)c23)ccc2c(N3C[C@H]4CC[C@@H](C3)N4)nc(OC[C@@]34CCCN3C[C@H](F)C4)nc12 [Example 55, 4-((1R,5S)-3,8-diazabicyclo[3.2. 1]octan-3-yl)-7-(8-chloronaphthalen-1-yl)-8-fluoro-2-(((2R,7aS)-2-fluorotetrahydro-1H-pyrrolizin-7a(5H)-yl)methoxy) quinazoline] | 8 | 7 | 1150 | 1660
Oc1cc(-c2ccc3c(N4C[C@H]5CC[C@@H](C4)N5)nc(OC[C@@]45CCCN4C[C@H](F)C5)nc3c2F)c2c(Cl)cccc2c1 [Example 56, 4-(4-((1R,5S)-3,8-diazabicyclo[3.2. 1]octan-3-yl)-8-fluoro-2-(((2R,7aS)-2-fluorotetrahydro-1H-pyrrolizin-7a(5H)-yl)methoxy)quinazolin-7-yl)-5-chloronaphthalen-2-ol] | 5 | 4 | 23 | 109
Cc1c(-c2cc(O)cc3cccc(Cl)c23)ccc2c(N3C[C@H]4CC[C@@H](C3)N4)nc(OC[C@@]34CCCN3C[C@H](F)C4)nc12 [Example 57, 4-(4-((1R,5S)-3,8-diazabicyclo[3.2. 1]octan-3-yl)-2-(((2R,7aS)-2-fluorotetrahydro-1H-pyrrolizin-7a(5H)-yl)methoxy)-8-methylquinazolin-7-yl)-5-chloronaphthalen-2-ol] | 5 | 3 | 222 | 213
CCc1c(F)ccc2cccc(-c3ccc4c(N5C[C@H]6CC[C@@H](C5)N6)nc(OC[C@@]56CCCN5C[C@H](F)C6)nc4c3C)c12 [Example 58, 4-((1R,5S)-3,8-diazabicyclo[3.2. 1]octan-3-yl)-7-(8-ethyl-7-fluoronaphthalen-1-yl)-2-(((2R,7aS)-2-fluorotetrahydro-1H-pyrrolizin-7a(5H)-yl)methoxy)-8-methylquinazolin] | 6 | 5 | 4190 | 2460
CCc1cccc2cccc(-c3ccc4c(N5C[C@H]6CC[C@@H](C5)N6)nc(OC[C@@]56CCCN5C[C@H](F)C6)nc4c3C)c12 [Example 59, 4-((1R,5S)-3,8-diazabicyclo[3.2. 1]octan-3-yl)-7-(8-ethylnaphthalen-1-yl)-2-(((2R,7aS)-2-fluorotetrahydro-1H-pyrrolizin-7a(5H)-yl)methoxy)-8-methylquinazoline] | 8 | 11 | 3380 | 4160
N#Cc1cccc2cccc(-c3c(F)cc4c(N5C[C@H]6CC[C@@H](C5)N6)nc(OC[C@@]56CCCN5C[C@H](F)C6)nc4c3F)c12 [Example 60, 8-(4-((1R,5S)-3,8-diazabicyclo[3.2. 1]octan-3-yl)-6,8-difluoro-2-(((2R,7aS)-2-fluorotetrahydro-1H-pyrrolizin-7a(5H)-yl)methoxy)quinazolin-7-yl)-1-naphthonitrile] | 8 | 4 | 530 | 418
CC(C)(O)COc1nc(N2C[C@H]3CC[C@@H](C2)N3)c2cc(F)c(-c3cc(O)cc4ccccc34)c(F)c2n1 [Example 64, 4-(4-((1R,5S)-3,8-diazabicyclo[3.2. 1]octan-3-yl)-6,8-difluoro-2-(2-hydroxy-2-methylpropoxy)quinazolin-7-yl)naphthalen-2-ol] | 51 | 17 | 5050 | 7030
CCc1c(F)ccc2cc(O)cc(-c3c(F)cc4c(N5C[C@H]6CC[C@@H](C5)N6)nc(OCC(C)(C)O)nc4c3F)c12 [Example 65, 4-(4-((1R,5S)-3,8-diazabicyclo[3.2. 1]octan-3-yl)-6,8-difluoro-2-(2-hydroxy-2-methylpropoxy)quinazolin-7-yl)-5-ethyl-6-fluoronaphthalen-2-ol] | 7 | 8 | 699 | 547
CCc1cccc2cccc(-c3c(F)cc4c(N5C[C@H]6CC[C@@H](C5)N6)nc(OC[C@@]56CCCN5C[C@H](F)C6)nc4c3F)c12 [Example 68, 4-((1R,5S)-3,8-diazabicyclo[3.2. 1]octan-3-yl)-7-(8-ethylnaphthalen-1-yl)-6,8-difluoro-2-(((2R,7aS)-2-fluorotetrahydro-1H-pyrrolizin-7a(5H)-yl)methoxy) quinazoline] | 4 | 3 | 732 | 658
CCc1c(F)ccc2cccc(-c3c(F)cc4c(N5C[C@H]6CC[C@@H](C5)N6)nc(OC[C@@]56CCCN5C[C@H](F)C6)nc4c3F)c12 [Example 69, 4-((1R,5S)-3,8-diazabicyclo[3.2. 1]octan-3-yl)-7-(8-ethyl-7-fluoronaphthalen-1-yl)-6,8-difluoro-2-(((2R,7aS)-2-fluorotetrahydro-1H-pyrrolizin-7a(5H)-yl)methoxy) quinazoline] | 4 | 2 | 1000 | 514
Oc1cc(-c2c(F)cc3c(N4C[C@H]5CC[C@@H](C4)N5)nc(OC[C@@]45CCCN4C[C@H](F)C5)nc3c2F)c2c(Cl)cccc2c1 [Example 70, 4-(4-((1R,5S)-3,8-diazabicyclo[3.2. 1]octan-3-yl)-6,8-difluoro-2-(((2R,7aS)-2-fluorotetrahydro-1H-pyrrolizin-7a(5H)-yl)methoxy)quinazolin-7-yl)-5-chloronaphthalen-2-ol] | 3 | 7 | 12 | 49
CCc1cccc2cccc(-c3c(Cl)cc4c(N5C[C@H]6CC[C@@H](C5)N6)nc(OC[C@@]56CCCN5C[C@H](F)C6)nc4c3F)c12 [Example 71, 4-((1R,5S)-3,8-diazabicyclo[3.2. 1]octan-3-yl)-6-chloro-7-(8-ethylnaphthalen-1-yl)-8-fluoro-2-(((2R,7aS)-2-fluorotetrahydro-1H-pyrrolizin-7a(5H)-yl)methoxy) quinazoline] | 38 | 50 | 4790 | 3360
CCc1cccc2cccc(-c3cc4nc(OC[C@@]56CCCN5C[C@H](F)C6)nc(N5C[C@H]6CC[C@@H](C5)N6)c4cc3F)c12 [Example 72, 4-((1R,5S)-3,8-diazabicyclo[3.2. 1]octan-3-yl)-7-(8-ethylnaphthalen-1-yl)-6-fluoro-2-(((2R,7aS)-2-fluorotetrahydro-1H-pyrrolizin-7a(5H)-yl)methoxy) quinazoline] | 23 | 18 | 2680 | 2600
Cc1c(Cl)cc2[nH]ncc2c1-c1c(Cl)cc2c(N3C[C@H]4CC[C@@H](C3)N4)nc(OC[C@@]34CCCN3C[C@H](F)C4)nc2c1F [Example 73, 4-((1R,5S)-3,8-diazabicyclo[3.2. 1]octan-3-yl)-6-chloro-7-(6-chloro-5-methyl-1H-indazol-4-yl)-8-fluoro-2-(((2R,7aS)-2-fluorotetrahydro-1H-pyrrolizin-7a(5H)-yl)methoxy) quinazoline] | 15 | 17 | 422 | 715
Cc1c(Cl)cc2[nH]ncc2c1-c1c(F)cc2c(N3C[C@H]4CC[C@@H](C3)N4)nc(OC[C@@]34CCCN3C[C@H](F)C4)nc2c1F [Example 74, 4-((1R,5S)-3,8-diazabicyclo[3.2. 1]octan-3-yl)-7-(6-chloro-5-methyl-1H-indazol-4-yl)-6,8-difluoro-2-(((2R,7aS)-2-fluorotetrahydro-1H-pyrrolizin-7a(5H)-yl)methoxy) quinazoline] | 7 | 7 | 148 | 386
Cc1cc2[nH]ncc2c(-c2c(F)cc3c(N4C[C@H]5CC[C@@H](C4)N5)nc(OC[C@@]45CCCN4C[C@H](F)C5)nc3c2F)c1Cl [Example 75, 4-((1R,5S)-3,8-diazabicyclo[3.2. 1]octan-3-yl)-7-(5-chloro-6-methyl-1H-indazol-4-yl)-6,8-difluoro-2-(((2R,7aS)-2-fluorotetrahydro-1H-pyrrolizin-7a(5H)-yl)methoxy) quinazoline] | 5 | 3 | 139 | 297
